Tests used:
[1] = biological target: T1, angiotensin II AT1 receptor (Oryctolagus cuniculus, UniProt P34976); experiment: Ex vivo agonist/antagonist activity on isolated rabbit thoracic aorta rings; conditions: 0.3, 3 and 30 μM; for agonist activity (contraction): non-treated rabbit thoracic aorta; for antagonist activity (inhibition of contractile response to angiotensin II): rabbit thoracic aorta previously exposed to angiotensin II 0.003 μM
T1 construct: tissue CEREP; host or cells: rabbit thoracic aorta rings
T1 sequence (P34976 1-359): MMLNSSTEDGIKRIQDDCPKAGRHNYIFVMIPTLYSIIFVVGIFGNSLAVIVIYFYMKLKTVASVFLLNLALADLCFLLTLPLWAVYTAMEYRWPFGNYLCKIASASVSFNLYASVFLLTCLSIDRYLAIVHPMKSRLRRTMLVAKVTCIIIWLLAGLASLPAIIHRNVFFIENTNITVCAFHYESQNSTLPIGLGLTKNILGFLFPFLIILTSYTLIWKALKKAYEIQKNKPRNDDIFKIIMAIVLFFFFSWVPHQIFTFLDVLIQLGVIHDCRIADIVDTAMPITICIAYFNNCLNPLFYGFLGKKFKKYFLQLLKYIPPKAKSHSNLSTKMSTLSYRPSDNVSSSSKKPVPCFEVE
Procedure: This activity is either agonist or antagonist and was evaluated ex vivo on isolated organs. Agonist activity corresponds to tissue contraction. Antagonist activity corresponds to tissue dilatation.
The ex vivo test was performed at the CEREP (Celle L'Evescault, France (86)) following a protocol based on Pendleton et al. (Pendleton R G et al.,1989). Rabbit thoracic aorta rings with intact endothelium were suspended in baths for organs containing an oxygenated physiologic saline solution (95% O2 and 5% CO2) and preheated (37° C.) having the following composition (mM): NaCl 118.0, KCl 4.7, MgSO4 1.2, CaCl2 2.5, KH2PO4 1.2, NaHCO3 25.0, and glucose 11.0 (pH 7.4).
Benextramine (1 μM), propranolol (1 μM), pyrilamine (1 μM), atropine (1 μM), methysergide (1 μM), and captopril (0.1 μM) were also used in all carried out experiments to block respectively α-adrenergic, β-adrenergic, histaminic H1 muscarinic, and 5-HT2 receptors as well as to prevent peptide degradation. The tissues were bound to a force sensor suitable for isometric tension recording. They were stretched to a resting tension of 4 g, then stabilized for 60 minutes. During the stabilization, they were washed several times and the tension was adjusted. The experiments were carried out using semi-automatic systems of isolated organs with eight organ baths and multichannel data acquisition.
The tissues were exposed to a submaximal concentration of the reference agonist (angiotensin II at 0.003 μM) to verify the response and obtain a control contractile response.
After several washing operations and after having recovered the basal tone, the tissues were exposed to increasing concentrations of compounds according to the invention or the same agonist. The different concentrations were added cumulatively, each one was left in contact with the tissues until a stable response was reached and for a maximum of 30 minutes. If an agonist type response (contraction) was registered, the reference antagonist (Saralasine at 0.01 μM) was tested regarding the highest concentration of the compounds according to the invention to confirm the involvement of the AT1 receptors in the response.
After stabilization of the contraction induced by angiotensin II, increasing concentrations of compounds according to the invention or of the reference antagonist (Saralasine) were added cumulatively. Each concentration was left in contact with the tissues until a stable response was observed and for a maximum of 30 minutes.
The inhibiting effect of the compounds according to the invention on the contraction induced by the angiotensin 11 indicates antagonist activity on AT1 receptors.

ApoE2/E2 mouse = experiment: Plasma lipids and cholesterol distribution in dyslipidemic ApoE2/E2 mouse; assay type: in vivo; conditions: for total cholesterol level / triglyceride level: 7 days per os
Procedure: The hypolipemic properties of the compounds according to the invention were evaluated in vivo by assaying plasma lipids and by an analysis of the gene expression of PPARs target genes, in the liver after a treatment of the dyslipidemic E2/E2 mice with the compounds according to the invention.
The murine model used is the ApoE2/E2 mouse, a transgenic mouse having human apolipoprotein E isoform E2 (Sullivan P M et al., 1998). In human, this apolipoprotein, a constituent of the low and the very low density lipoproteins (LDL-VLDL), exists in three isoforms E2, E3, and E4. The E2 form has a mutation affecting the amino acid of position 158, which considerably weakens the affinity of this protein for the receptors to LDL., the VLDL clearance is nearly non-existent.
The ApoE2/E2 transgenic mice were kept on a 12 hour/12 hour light/dark cycle at a constant temperature of 20±3° C. After a one week acclimatization period, the mice were weighed and divided into groups of 5 animals selected so as to render uniform the distribution of their body weights and their plasma lipid levels, determined before the experiment. The tested compounds were suspended in carboxymethylcellulose (Sigma C4888) and administered by intra-gastric tube feeding, once a day for 7 days at the chosen dose. The animals had free access to food and water. At the end of the experiment, the animals were anesthetized after a 4 hour fast, a blood sample was taken using anticoagulant (EDTA), then the mice were weighed and euthanized. The plasma was separated by centrifugation at 3000 rotations/minute for 20 minutes. The samples were kept at +4° C.
Plasma lipid concentrations (total cholesterol and triglycerides) were measured by enzymatic assays (bioMerieux-Lyon-France) according to the provider's recommendations.
The different lipid fractions (VLDL, LDL,HDL) of the plasma were separated by gel-filtration chromatography. The concentrations of cholesterol of each fraction were then measured by enzymatic assays (bioMerieux-Lyon-France) according to the provider's recommendations.

[2] = system: Wistar rats under perfusion of angiotensin II; experiment: Arterial pressure of Wistar rats under angiotensin II perfusion; assay type: in vivo, rat; conditions: angiotensin II perfusion 100 ng/kg/min; intravenous increasing doses 1, 3, 10 and 30 mpk
Procedure: This experimental procedure is intended to show the anti-hypertensive effects of the compounds according to the invention in Wistar rats in which hypertension is induced either by continuous intravenous administration of angiotensin II (example 21.1) or by repeated intravenous administration of angiotensin II (example 21.2). The animals were treated with the compounds according to the invention intravenously at increasing doses. To validate the study, the control animals were administered, in the same conditions, either the vehicle itself or a reference.
Wistar rats (males—200-250 g—5-6 weeks old—CERJ) were anesthetized for surgery using pentobarbital (50 mg/kg). A catheter was placed in the right jugular vein for the angiotensin II perfusion. A catheter was placed in the left jugular vein for the administration of the compounds according to the invention. The angiotensin II perfusion at 100 ng/kg/min was performed using an auto-syringe set at 5 ml/hour (vehicle NaCl 0.15M). A solution of Na2CO3/NaHCO3 (50 mM pH 9.6) served as the vehicle for the compounds according to the invention. Arterial pressure was measured using a sensor set in the carotid artery via a catheter.
The arterial pressure of the animal was measured for few minutes in basal conditions, before the angiotensin II perfusion was put into place. […]

[3] = 7-day treatment, 10, 30 and 100 mpk

Row | agonist activity (contraction) [1] | melting point | Structure (SMILES) | antagonist activity (inhibition of contractile response to angiotensin II) [1] | total cholesterol level (ApoE2/E2 mouse; 25, 50, 100 and 200 mpk) | triglyceride level (ApoE2/E2 mouse; 25, 50, 100 and 200 mpk) | arterial pressure: antagonist effect on angiotensin II [2] | HDL-cholesterol fraction (ApoE2/E2 mouse; [3]) | cholesterol in VLDL and LDL fractions (ApoE2/E2 mouse; [3]) | total cholesterol level (ApoE2/E2 mouse; 10, 30 or 100 mpk) | triglyceride level (ApoE2/E2 mouse; 10, 30 or 100 mpk)
1 | do not induce contraction | 169 to 171 °C | CCCCC1=NC2(CCCC2)C(=O)N1Cc1ccc(-c2cccc(OC(C)(C)C(=O)O)c2)cc1 [Compound 1, 2-butyl-1-[(3′-((1-carboxy-1,1-dimethylmethyl)oxy)biphenyl-4-yl)methyl]-4-spirocyclopentyl-1H-imidazol-5(4H)-one] | inhibiting effect of the contractile response of the reference agonist | remarkable dose-dependently decrease | remarkable dose-dependently decrease | antagonist effect on angiotensin II in a significant and dose-dependent way | – | – | – | –
2 | do not induce contraction | 160 to 162 °C | CCCCC1=NC2(CCCCC2)C(=O)N1Cc1ccc(-c2cccc(OC(C)(C)C(=O)O)c2)cc1 [Compound 21, 2-butyl-1-[(3′-((1-carboxy-1,1-dimethylmethyl)oxy)biphenyl-4-yl)methyl]-4-spirocyclohexyl-1H-imidazol-5(4H)-one] | inhibiting effect of the contractile response of the reference agonist | – | – | antagonist effect on angiotensin II in a significant and dose-dependent way | significant increase | significant decrease | remarkable dose-dependently decrease | remarkable dose-dependently decrease

From patent US20100004159A1, “SUBSTITUTED IMIDAZOLONE DERIVATIVES, PREPARATIONS AND USES” (GENFIT, priority 2006, published 2010)
